Series [1] relates to Mus musculus. Briefly: Reduction in lipid excursion in mouse assessed as change in triglyceride level at 3 mg/kg, po measured at 18 hrs post dose by lipid tolerance test. The format is functional. The arrangement: scale not given: the % may be the effect or the level left.
Series [2] is described as follows: Lipophilicity, log D of the compound by HPLC analysis. The format is physicochemical.
Series [3] concerns the target T1, Diacylglycerol O-acyltransferase 1 (Homo sapiens, UniProt O75907).
T1 sequence (O75907 whole entry): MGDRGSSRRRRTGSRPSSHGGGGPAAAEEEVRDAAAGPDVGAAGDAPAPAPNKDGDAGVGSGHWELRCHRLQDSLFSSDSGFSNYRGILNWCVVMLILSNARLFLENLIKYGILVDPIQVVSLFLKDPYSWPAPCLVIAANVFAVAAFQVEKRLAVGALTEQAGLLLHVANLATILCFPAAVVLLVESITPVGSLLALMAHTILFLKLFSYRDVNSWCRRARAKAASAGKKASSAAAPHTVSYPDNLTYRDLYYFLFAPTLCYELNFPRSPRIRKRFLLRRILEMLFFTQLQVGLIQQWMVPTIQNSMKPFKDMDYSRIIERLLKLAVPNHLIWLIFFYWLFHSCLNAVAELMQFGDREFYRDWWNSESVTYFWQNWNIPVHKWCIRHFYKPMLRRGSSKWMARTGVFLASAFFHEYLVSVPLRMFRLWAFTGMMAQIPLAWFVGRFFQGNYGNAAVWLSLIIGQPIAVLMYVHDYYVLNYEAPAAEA
Description: Inhibition of human DGAT1.

The species entered for series [4] is Homo sapiens. Briefly: Selectivity index, ratio of IC50 for human ACAT1 to IC50 for human DGAT1.
The target of series [5] is T2, Diacylglycerol O-acyltransferase 1 (Mus musculus, UniProt Q9Z2A7).
T2 sequence (Q9Z2A7 whole entry): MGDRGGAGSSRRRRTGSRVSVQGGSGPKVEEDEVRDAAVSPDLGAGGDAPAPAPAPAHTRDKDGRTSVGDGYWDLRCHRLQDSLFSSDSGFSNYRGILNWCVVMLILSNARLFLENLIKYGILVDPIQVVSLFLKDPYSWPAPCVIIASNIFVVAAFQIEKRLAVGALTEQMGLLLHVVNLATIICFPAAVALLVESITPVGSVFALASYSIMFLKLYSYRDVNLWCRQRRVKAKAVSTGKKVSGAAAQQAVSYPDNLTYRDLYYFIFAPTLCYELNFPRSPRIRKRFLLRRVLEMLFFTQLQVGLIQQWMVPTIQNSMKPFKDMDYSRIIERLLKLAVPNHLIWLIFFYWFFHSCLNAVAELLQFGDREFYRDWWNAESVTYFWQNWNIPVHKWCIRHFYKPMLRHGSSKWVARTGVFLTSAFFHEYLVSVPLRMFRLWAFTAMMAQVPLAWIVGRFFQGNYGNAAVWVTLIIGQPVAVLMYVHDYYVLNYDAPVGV
Briefly: Inhibition of mouse DGAT1.

In series [6] the target is T3, Sterol O-acyltransferase 1 (Homo sapiens, UniProt P35610).
T3 sequence (P35610 whole entry): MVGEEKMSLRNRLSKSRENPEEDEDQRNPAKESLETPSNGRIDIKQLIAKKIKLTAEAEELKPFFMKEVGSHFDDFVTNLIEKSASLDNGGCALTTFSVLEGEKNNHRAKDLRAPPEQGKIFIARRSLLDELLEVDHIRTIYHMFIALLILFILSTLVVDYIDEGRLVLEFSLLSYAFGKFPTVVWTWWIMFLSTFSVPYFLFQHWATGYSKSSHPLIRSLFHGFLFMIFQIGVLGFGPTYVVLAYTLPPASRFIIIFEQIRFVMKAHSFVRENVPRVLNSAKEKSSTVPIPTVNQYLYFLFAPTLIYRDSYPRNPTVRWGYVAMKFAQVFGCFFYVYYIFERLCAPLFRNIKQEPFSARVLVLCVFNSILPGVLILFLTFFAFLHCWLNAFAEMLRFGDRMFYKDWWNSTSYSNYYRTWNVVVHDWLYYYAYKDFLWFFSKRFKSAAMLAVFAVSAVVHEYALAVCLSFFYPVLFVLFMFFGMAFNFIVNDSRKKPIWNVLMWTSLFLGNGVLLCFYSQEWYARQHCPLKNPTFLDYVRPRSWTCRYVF
Briefly: Inhibition of human ACAT1.

Series [7] can be described thus: Plasma concentration in mouse at 3 mg/kg, po. Conditions: in vivo. It is filed as ADME, organism-based.
A short description of series [8]: Stability in human hepatocytes assessed as epimerization incubated for 2 hrs by UPLC/HRMS analysis. The format is ADME, cell-based, Hepatocyte.
Series [9] is described as follows: Stability in mouse hepatocytes assessed as epimerization incubated for 2 hrs by UPLC/HRMS analysis. It is filed as ADME, cell-based, Hepatocyte.
Series [10] is described as follows: Stability in rat hepatocytes assessed as epimerization incubated for 2 hrs by UPLC/HRMS analysis. It is filed as ADME, cell-based, Hepatocyte.
A short description of series [11]: Plasma concentration in mouse at 10 mg/kg, po. The format is ADME, organism-based. The following applies: in vivo.
Series [12] deals with Mus musculus. Briefly: Reduction in lipid excursion in mouse assessed as change in triglyceride level at 10 mg/kg, po measured at 18 hrs post dose by lipid tolerance test. On the set-up: scale not given: the % may be the effect or the level left. The format is functional.
Series [13] is described as follows: Drug metabolism in mouse assessed as epimerization by measuring plasma concentration of 1s,4s)-4-(1-(5-(5-(trifluoromethyl)-1H-benzo[d]imidazol-2-yl)pyridin-2-yl)piperidin-4-yloxy)cyclohexanecarboxylic acid at 10 mg/kg, po after 3 hrs. It is filed as ADME, organism-based. The following applies: in vivo.
The nature of series [14]: Plasma concentration in mouse at 10 mg/kg, po after 3 hrs. It is filed as ADME, organism-based.
The nature of series [15]: Drug metabolism in human hepatocytes assessed as glucuronide formation incubated for 2 hrs by UPLC/HRMS analysis. It is filed as ADME, cell-based, Hepatocyte.
Series [16] can be described thus: Plasma concentration in mouse at 10 mg/kg, po after 4 hrs. The format is ADME, organism-based.
Series [17] can be described thus: Drug metabolism in mouse hepatocytes assessed as glucuronide formation incubated for 2 hrs by UPLC/HRMS analysis. The format is ADME, cell-based, Hepatocyte.
A short description of series [18]: Drug metabolism in rat hepatocytes assessed as glucuronide formation incubated for 2 hrs by UPLC/HRMS analysis. It is filed as ADME, cell-based, Hepatocyte.

One may read the logD as the decadic logarithm of the distribution of all forms, ionised or not, between an organic phase and buffer at a given pH. One may read the IC50 as the concentration that gives 50% inhibition.

For the compound `O=C(O)[C@H]1[C@@H]2C[C@@H](OC3CCN(c4ccc(-c5nc6cc(C(F)(F)F)ccc6[nH]5)cn4)CC3)C[C@@H]21`, in series [1], the Activity is on record as -30%. In addition, the logD in [2] was determined as 1.87. The IC50 is 0.0038 µM in series [3], 0.022 µM in series [5] and more than 10 µM in [6]. The Ratio IC50 in series [4] is more than 2600. In addition, the concentration in series [7] turned out to be 0.025 µM.

For the compound `O=C(O)[C@H]1CC[C@@H](OC2CCN(c3ccc(-c4nc5cc(C(F)(F)F)ccc5[nH]4)cn3)CC2)CC1`, the Stability result in series [8], in series [9] and in series [10] was “Unstable” throughout. In addition, in series [2], the log distribution coefficient (logD) turned out to be 1.64. Besides, in series [4], the Ratio IC50 is more than 4000. The concentration in series [11] was 0.026 µM. In addition, the Activity in [12] is reported as -75%.

As to `O=C(O)[C@H]1CC[C@H](OC2CCN(c3ccc(-c4nc5cc(C(F)(F)F)ccc5[nH]4)cn3)CC2)CC1`, the Stability result in series [8], in series [9] and in series [10] was “Unstable” each time. The concentration is 0.054 µM in series [13] and 0.017 µM in series [11]. The log distribution coefficient (logD) in [2] amounted to 1.68. The Ratio IC50 in series [4] is more than 2500. The compound also had a concentration at 3 h in series [14] of 0.324 µM. Moreover, in series [12], the Activity was -89%.

Turning to `O=C(O)[C@@H]1[C@@H]2C[C@@H](OC3CCN(c4ccc(-c5nc6cc(C(F)(F)F)ccc6[nH]5)cn4)CC3)C[C@@H]21`, the Activity in [1] is -30%. The compound further displayed a logD in series [2] of 1.73. Moreover, the concentration for half-maximal inhibition (IC50) in series [3] is 0.0059 µM; in [5] it was 0.048 µM; in series [6] it was more than 10 µM. In addition, the Ratio IC50 in series [4] is more than 1690. For the same compound, the concentration in series [7] worked out at 0.051 µM.

`O=C(O)[C@H]1[C@@H]2C[C@H](OC3CCN(c4ccc(-c5nc6cc(C(F)(F)F)ccc6[nH]5)cn4)CC3)C[C@@H]21`: the Stability result in [8], in series [9] and in series [10] was “Stable” each time. In addition, in series [1], the Activity is on record as -70%. Moreover, the logD in [2] was determined as 1.9. The Drug metabolism result in series [15], in series [17] and in series [18] was “Metabolite_Detected” each time. The Ratio IC50 in [4] came to 1950. Moreover, the 50% inhibitory concentration (IC50) in series [5] is 0.0043 µM; in series [6], 3.9 µM. In [7], this compound returned a concentration of 0.027 µM. Further, the concentration at 4 h in [16] worked out at 0.151 µM.

In the case of `O=C(O)[C@@H]1[C@@H]2C[C@H](OC3CCN(c4ccc(-c5nc6cc(C(F)(F)F)ccc6[nH]5)cn4)CC3)C[C@@H]21`, the Stability result in [8], in series [9] and in series [10] was “Stable” throughout. In [1], the Activity is 3%. The pH-dependent lipophilicity (logD) in series [2] was 1.88. The Drug metabolism entry in series [15], in series [17] and in series [18] was “Metabolite_Detected” each time. Moreover, in series [4], the Ratio IC50 is more than 900. Also, the half-inhibitory concentration (IC50) was 0.074 µM in series [5] and more than 10 µM in series [6]. Further, the concentration in series [7] came to 0.023 µM.

These data come from ChEMBL document CHEMBL4316630, “Benzimidazole-based DGAT1 inhibitors with a [3.1.0] bicyclohexane carboxylic acid moiety” (Bioorg Med Chem Lett, 2019).
